From patent US8796466B2, “Hepatitis C virus inhibitors” (Bristol-Myers Squibb Company, priority 2009, dated 2014)
Read-outs that look alike come from different tables or passages of the source.

Test system: HCV 1b genotype
Test: HCV Replicon assay (HCV 1b genotype)
Assay type: cell-based, Hepatitis C virus
Conditions: Hepatitis C virus, HCV 1b genotype replicon
In short: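 HCV-neo replicon cells, wild-type plus lines carrying NS5A-region mutations, were exposed to compound; luciferase-reporter replicon variants were also used.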

[1] = class symbol, read-out: Range (EC50 values against HCV 1b)
[2] = Effective 50% inhibitory concentration, read-out: 1b EC50

For `COC(=O)N[C@H](C(=O)N1[C@@H]2C[C@@H]2C[C@H]1c1ncc(-c2ccc(/C=C/c3ccc(-c4cnc([C@@H]5C[C@H]6C[C@H]6N5C(=O)[C@@H](NC(=O)OC)C(C)C)[nH]4)cc3)cc2)[nH]1)C(C)C` [Example M13, methyl ((1S)-1-(((1R,3S,5R)-3-(4-(4-((E)-2-(4-(2-((1R,3S,5R)-2-((2S)-2-((methoxycarbonyl)amino)-3-methylbutanoyl)-2-azabicyclo[3.1.0]hex-3-yl)-1H-imidazol-4-yl)phenyl)vinyl)phenyl)-1H-imidazol-2-yl)-2-azabicyclo[3.1.0]hex-2-yl)carbonyl)-2-methylpropyl)carbamate], which EC50 [1] is on record?
Its EC50 is 0.002 to 0.099 nM.

What does the source list for `COC(=O)N[C@H](C(=O)N1[C@@H]2C[C@@H]2C[C@H]1c1nc(-c2ccc(/C=C/c3ccc(-c4c[nH]c([C@@H]5C[C@H]6C[C@H]6N5C(=O)[C@@H](NC(=O)OC)C5CCOCC5)n4)cc3)cc2)c[nH]1)C1CCOCC1` [Example M14, dimethyl ((E)-1,2-ethenediylbis(4,1-phenylene-1H-imidazole-4,2-diyl(1R,3S,5R)-2-azabicyclo[3.1.0]hexane-3,2-diyl((1S)-2-oxo-1-(tetrahydro-2H-pyran-4-yl)-2,1-ethanediyl)))biscarbamate]?
EC50 [2]: 0.017 nM; EC50 [1]: 0.002 to 0.099 nM

With `COC(=O)N[C@H](C(=O)N1[C@@H]2C[C@@H]2C[C@H]1c1nc(-c2ccc(/C=C/c3ccc(-c4c[nH]c([C@@H]5C[C@H]6C[C@H]6N5C(=O)[C@@H](NC(=O)OC)C5CCOCC5)n4)cc3)cc2)c[nH]1)C(C)C` [Example M15, methyl ((1S)-2-((1R,3S,5R)-3-(4-(4-((E)-2-(4-(2-((1R,3S,5R)-2-((2S)-2-((methoxycarbonyl)amino)-3-methylbutanoyl)-2-azabicyclo[3.1.0]hex-3-yl)-1H-imidazol-4-yl)phenyl)vinyl)phenyl)-1H-imidazol-2-yl)-2-azabicyclo[3.1.0]hex-2-yl)-2-oxo-1-(tetrahydro-2H-pyran-4-yl)ethyl)carbamate] as the compound, how does the EC50 [1] read?
The EC50 was 0.002 to 0.099 nM.

For `COC(=O)N[C@H](C(=O)N1CC(F)(F)C[C@H]1c1nc(-c2ccc(C#Cc3ccc(-c4c[nH]c([C@@H]5CC(F)(F)CN5C(=O)[C@@H](NC(=O)OC)C(C)C)n4)cc3)cc2)c[nH]1)C(C)C` [Example N1, methyl ((1S)-1-(((2S)-2-(4-(4-((4-(2-((2S)-4,4-difluoro-1-((2S)-2-((methoxycarbonyl)amino)-3-methylbutanoyl)-2-pyrrolidinyl)-1H-imidazol-4-yl)phenyl)ethynyl)phenyl)-1H-imidazol-2-yl)-4,4-difluoro-1-pyrrolidinyl)carbonyl)-2-methylpropyl)carbamate], which EC50 [1] is on record?
Its EC50 is 0.002 to 0.099 nM.

How did the EC50 [1] turn out when `COC(=O)N[C@H](C(=O)N1CC(F)(F)C[C@H]1c1ncc(-c2ccc(C#Cc3ccc(-c4cnc([C@@H]5CC(F)(F)CN5C(=O)[C@@H](NC(=O)OC)C5CCOCC5)[nH]4)cc3)cc2)[nH]1)C1CCOCC1` [Example N2, dimethyl (ethyne-1,2-diylbis(4,1-phenylene-1H-imidazole-5,2-diyl((2S)-4,4-difluoropyrrolidine-2,1-diyl)((1S)-2-oxo-1-(tetrahydro-2H-pyran-4-yl)ethane-2,1-diyl)))biscarbamate] was run?
The EC50 was 0.002 to 0.099 nM.

Which results are given for `COC(=O)N[C@H](C(=O)N1CC(F)(F)C[C@H]1c1ncc(-c2ccc(C#Cc3ccc(-c4cnc([C@@H]5CC(F)(F)CN5C(=O)[C@H](NC(=O)OC)C5CCOCC5)[nH]4)cc3)cc2)[nH]1)C1CCOCC1` [Example N3, methyl ((1R)-2-((2S)-2-(5-(4-((4-(2-((2S)-4,4-difluoro-1-((2S)-2-((methoxycarbonyl)amino)-2-(tetrahydro-2H-pyran-4-yl)acetyl)pyrrolidin-2-yl)-1H-imidazol-5-yl)phenyl)ethynyl)phenyl)-1H-imidazol-2-yl)-4,4-difluoropyrrolidin-1-yl)-2-oxo-1-(tetrahydro-2H-pyran-4-yl)ethyl)carbamate]?
EC50 [2]: 0.25 nM; EC50 [1]: 10 to 350 nM

With `COC(=O)N[C@@H](C(=O)N1CC(F)(F)C[C@H]1c1ncc(-c2ccc(C#Cc3ccc(-c4cnc([C@@H]5CC(F)(F)CN5C(=O)[C@H](NC(=O)OC)C5CCOCC5)[nH]4)cc3)cc2)[nH]1)C1CCOCC1` [Example N4, dimethyl (ethyne-1,2-diylbis(4,1-phenylene-1H-imidazole-5,2-diyl((2S)-4,4-difluoropyrrolidine-2,1-diyl)((1R)-2-oxo-1-(tetrahydro-2H-pyran-4-yl)ethane-2,1-diyl)))biscarbamate] as the compound, how does the EC50 [2] read?
The EC50 was 0.18 nM.

What about the EC50 [1] of the same compound?
The EC50 was 10 to 350 nM.

With `COC(=O)N[C@H](C(=O)N1CCCC[C@H]1c1ncc(-c2ccc(C#Cc3ccc(-c4cnc([C@@H]5CCCCN5C(=O)[C@@H](NC(=O)OC)C(C)C)[nH]4)cc3)cc2)[nH]1)C(C)C` [Example N6, methyl ((1S)-1-(((2S)-2-(4-(4-((4-(2-((2S)-1-((2S)-2-((methoxycarbonyl)amino)-3-methylbutanoyl)-2-piperidinyl)-1H-imidazol-4-yl)phenyl)ethynyl)phenyl)-1H-imidazol-2-yl)-1-piperidinyl)carbonyl)-2-methylpropyl)carbamate] as the compound, how does the EC50 [1] read?
Its EC50 is 10 to 350 nM.

With `COC(=O)N[C@H](C(=O)N1C[C@@H](O)C[C@H]1c1ncc(-c2ccc(C#Cc3ccc(-c4cnc([C@@H]5C[C@H](O)CN5C(=O)[C@@H](NC(=O)OC)C(C)C)[nH]4)cc3)cc2)[nH]1)C(C)C` [Example N7, methyl ((1S)-1-(((2S,4S)-4-hydroxy-2-(4-(4-((4-(2-((2S,4S)-4-hydroxy-1-((2S)-2-((methoxycarbonyl)amino)-3-methylbutanoyl)-2-pyrrolidinyl)-1H-imidazol-4-yl)phenyl)ethynyl)phenyl)-1H-imidazol-2-yl)-1-pyrrolidinyl)carbonyl)-2-methylpropyl)carbamate] as the compound, how does the EC50 [1] read?
The EC50 was 0.002 to 0.099 nM.

Which EC50 [1] does the source give for `COC(=O)N[C@H](C(=O)N1[C@H](c2ncc(-c3ccc(C#Cc4ccc(-c5cnc([C@@H]6C[C@@H]7C[C@@H]7N6C(=O)[C@@H](NC(=O)OC)C(C)C)[nH]5)cc4)cc3)[nH]2)C[C@@H]2C[C@@H]21)C(C)C` [Example N8, methyl((1S)-1-(((1S,3S,5S)-3-(4-(4-((4-(2-((1S,3S,5S)-2-((2S)-2-((methoxycarbonyl)amino)-3-methylbutanoyl)-2-azabicyclo[3.1.0]hex-3-yl)-1H-imidazol-4-yl)phenyl)ethynyl)phenyl)-1H-imidazol-2-yl)-2-azabicyclo[3.1.0]hex-2-yl)carbonyl)-2-methylpropyl)carbamate] here?
The EC50 was 10 to 350 nM.

`COC(=O)N[C@H](C(=O)N1[C@H](c2ncc(-c3ccc(C#Cc4ccc(-c5cnc([C@@H]6C[C@@H]7C[C@@H]7N6C(=O)[C@@H](NC(=O)OC)C6CCOCC6)[nH]5)cc4)cc3)[nH]2)C[C@@H]2C[C@@H]21)C1CCOCC1` [Example N9, dimethyl (1,2-ethynediylbis(4,1-phenylene-1H-imidazole-4,2-diyl(1S,3S,5S)-2-azabicyclo[3.1.0]hexane-3,2-diyl((1S)-2-oxo-1-(tetrahydro-2H-pyran-4-yl)-2,1-ethanediyl)))biscarbamate] was tested. Which EC50 [1] did it give?
The EC50 was 0.002 to 0.099 nM.

How did the EC50 [1] turn out when `CN(C)[C@@H](C(=O)N1CCC[C@H]1c1ncc(-c2ccc(Oc3ccc(-c4cnc([C@@H]5CCCN5C(=O)[C@@H](c5ccccc5)N(C)C)[nH]4)cc3)cc2)[nH]1)c1ccccc1` [OL-1, (1R)-2-((2S)-2-(4-(4-(4-(2-((2S)-1-((2R)-2-(dimethylamino)-2-phenylacetyl)-2-pyrrolidinyl)-1H-imidazol-5-yl)phenoxy)phenyl)-1H-imidazol-2-yl)-1-pyrrolidinyl)-N,N-dimethyl-2-oxo-1-phenylethanamine] was run?
The EC50 was 1 to 9.9 nM.

For `O=C([C@H](O)c1ccccc1)N1CCC[C@H]1c1nc(-c2ccc(Oc3ccc(-c4cnc([C@@H]5CCCN5C(=O)[C@H](O)c5ccccc5)[nH]4)cc3)cc2)c[nH]1` [OL-2, (1R)-2-((2S)-2-(4-(4-(4-(2-((2S)-1-((2R)-2-hydroxy-2-phenylacetyl)-2-pyrrolidinyl)-1H-imidazol-5-yl)phenoxy)phenyl)-1H-imidazol-2-yl)-1-pyrrolidinyl)-2-oxo-1-phenylethanol], which EC50 [2] is on record?
The EC50 was 9.1 nM.

What about the EC50 [1] of the same compound?
The EC50 was 1 to 9.9 nM.

Which EC50 [1] does the source give for `COC(=O)N[C@@H](C(=O)N1CCC[C@H]1c1nc(-c2ccc(Oc3ccc(-c4c[nH]c([C@@H]5CCCN5C(=O)[C@H](NC(=O)OC)c5ccccc5)n4)cc3)cc2)c[nH]1)c1ccccc1` [OL-3, dimethyl (oxybis(4,1-phenylene-1H-imidazole-4,2-diyl(2S)-2,1-pyrrolidinediyl((1R)-2-oxo-1-phenyl-2,1-ethanediyl)))biscarbamate] here?
Its EC50 is 1 to 9.9 nM.

`CN(C)[C@@H](C(=O)N1CCC[C@H]1c1ncc(-c2ccc(Oc3cccc(-c4cnc([C@@H]5CCCN5C(=O)[C@@H](c5ccccc5)N(C)C)[nH]4)c3)cc2)[nH]1)c1ccccc1` [OL-4, (1R)-2-((2S)-2-(4-(3-(4-(2-((2S)-1-((2R)-2-(dimethylamino)-2-phenylacetyl)-2-pyrrolidinyl)-1H-imidazol-4-yl)phenoxy)phenyl)-1H-imidazol-2-yl)-1-pyrrolidinyl)-N,N-dimethyl-2-oxo-1-phenylethanamine] was tested. Which EC50 [2] did it give?
Its EC50 is 0.07 nM.

And the EC50 [1]?
Its EC50 is 0.002 to 0.099 nM.

What does the source list for `O=C([C@H](O)c1ccccc1)N1CCC[C@H]1c1nc(-c2ccc(Oc3cccc(-c4c[nH]c([C@@H]5CCCN5C(=O)[C@H](O)c5ccccc5)n4)c3)cc2)c[nH]1` [OL-5, (1R)-2-((2S)-2-(4-(3-(4-(2-((2S)-1-((2R)-2-hydroxy-2-phenylacetyl)-2-pyrrolidinyl)-1H-imidazol-4-yl)phenoxy)phenyl)-1H-imidazol-2-yl)-1-pyrrolidinyl)-2-oxo-1-phenylethanol]?
EC50 [2]: 80 nM; EC50 [1]: 10 to 350 nM

How did the EC50 [1] turn out when `COC(=O)N[C@@H](C(=O)N1CCC[C@H]1c1nc(-c2ccc(Oc3cccc(-c4c[nH]c([C@@H]5CCCN5C(=O)[C@H](NC(=O)OC)c5ccccc5)n4)c3)cc2)c[nH]1)c1ccccc1` [OL-6, methyl ((1R)-2-((2S)-2-(4-(3-(4-(2-((2S)-1-((2R)-2-((methoxycarbonyl)amino)-2-phenylacetyl)-2-pyrrolidinyl)-1H-imidazol-4-yl)phenoxy)phenyl)-1H-imidazol-2-yl)-1-pyrrolidinyl)-2-oxo-1-phenylethyl)carbamate] was run?
Its EC50 is 0.002 to 0.099 nM.
